In patent US9353146B2, “Acylation derivatives of paridis saponins I, preparation method therefor and application thereof” (HANGZHOU BENSHENG PHARMACEUTICAL CO., LTD., priority 2012, dated 2016):
Converted amounts (≈) assume the structure as drawn.

Key:
[1] = system: NB4 (acute promyelocytic leukemia, AML); assay: Anti-leukemia cell growth inhibition, MTT method, 72 h; format: cell-based, human; conditions: for IC50 / IC90: Homo sapiens
Description: (§1) Leukemia cell lines: leukemia cell lines: K562/adr (drug-resistant, chronic myeloid leukemia, CML), NB4 (acute promyelocytic leukemia, AML), and Kasumi-1 (acute myeloid leukemia M2 type, AML-M2), all of which were donated by Cancer Research Institute of Zhejiang University, China.
(§2) 6000 well-growing leukemia cells were obtained and inoculated into wells of a 96-well cell culture plate. The culture medium used was the 1640 cell culture medium containing 10% fetal bovine serum. After adding the Polyphyllin I derivatives with 5′-acylated arabinofuranosyl of different concentrations and mixing uniformly, the plate was placed in a carbon dioxide cell incubator (5% CO2) at 37° C. and incubated for 72 hours. Then the viable cell concentration was determined by the MTT method. In this experiment, the cell viability in control group (not treated with any compound) is set as 100%. On such basis, the cell viability (%) after treatment of the compound and the 50% inhibiting concentration for the leukemia cell growth at 72 hours (IC50 value and IC90 value of 72 hours) were calculated.

[2] = system: K562/adr (drug-resistant, chronic myeloid leukemia, CML); assay: as above; format: cell-based, human; conditions: for IC50 / IC90: Homo sapiens, K562/Adr
Description: as §1, §2

[3] = system: RKO (human colon adenocarcinoma cell); assay: Anti-human solid tumor cell growth inhibition, MTT method, 72 h; format: cell-based; conditions: for IC90: Homo sapiens
Description: (§3) Human solid tumor cell lines: A549 (human lung cancer) and SK-OV-3 (ovarian cancer cell), all of which are purchased from China Center For Type Culture Collection; RKO (human colon adenocarcinoma cell) and MG-63 (osteosarcoma), all of which are purchased from Fuxiang Bio-tech Co. Ltd., Shanghai, China; Hela (human cervical cancer cell), donated by Cancer Research Institute of Zhejiang University, China.
(§4) 4000 well-growing human solid tumor cells were obtained and inoculated into wells of a 96-well cell culture plate. The culture medium used was DMEM High Glucose cell culture medium containing 10% fetal bovine serum. The plate is placed in a carbon dioxide cell incubator (5% CO2) at 37° C. and incubated for 24 hours. After adding the Polyphyllin I derivatives with 5′-acylated arabinofuranosyl group of different concentrations and mixing uniformly, the plate was continued to be placed in a carbon dioxide cell incubator (5% CO2) at 37° C. and incubated for 72 hours. Then the viable cell concentration was determined by the MTT method and the cell viability (%) after drug treatment was calculated. In this experiment, the cell viability of control group (not treated with any compound) is set as 100%.

A549 (human lung cancer) = assay: as above; format: cell-based; conditions: for IC50 / IC90: Homo sapiens, A549
Description: as §3, §4

[4] = system: Hela (human cervical cancer cell); assay: as above; format: cell-based; conditions: for IC50 / IC90: Homo sapiens, HeLa
Description: as §3, §4

[5] = system: Kasumi-1 (acute myeloid leukemia M2 type, AML-M2); assay: Anti-leukemia cell growth inhibition, MTT method, 72 h; format: cell-based, human; conditions: for IC50: Homo sapiens, Kasumi 1
Description: as §1, §2

[6] = system: SK-OV-3 (ovarian cancer cell); assay: Anti-human solid tumor cell growth inhibition, MTT method, 72 h; format: cell-based
Description: as §3, §4

MG-63 (osteosarcoma) = assay: as above; format: cell-based; conditions: for IC50 / IC90: Homo sapiens, MG-63
Description: as §3, §4

[7] = system: nasopharyngeal carcinoma CNE-2 cell line; conditions: HUA Yonghong et al. 2011; cited from earlier work
[8] = system: nasopharyngeal carcinoma CNE-2 cell line; conditions: DDP as positive control; HUA Yonghong et al. 2011; cited from earlier work
[9] = system: human hepatocellular carcinoma SMMC-7721 cell line; conditions: in vitro; XIAO Meifang et al. 2011; cited from earlier work

Compound | IC50 [1] [µg/mL] | IC90 [1] [µg/mL] | IC50 [2] [µg/mL] | IC90 [3] [µg/mL] | IC90 [2] [µg/mL] | IC50 (A549 (human lung cancer)) [µg/mL] | IC90 (A549 (human lung cancer)) [µg/mL] | IC50 [4] [µg/mL] | IC90 [4] [µg/mL] | further results
COc1ccc(C(=O)OC[C@@H]2OC(O[C@H]3[C@H](O)[C@@H](OC4O[C@@H](C)[C@H](O)[C@@H](O)[C@H]4O)[C@H](O[C@H]4CC[C@@]5(C)C(=CCC6C7CC8O[C@]9(CC[C@@H](C)CO9)[C@@H](C)C8[C@@]7(C)CCC65)C4)O[C@@H]3CO)[C@H](O)[C@H]2O)cc1 (stereo partly drawn) [BS-PP-03] | 1.13 (≈ 1.14 µM) | 1.96 (≈ 1.98 µM) | 0.69 (≈ 0.698 µM) | 4.5 (≈ 4.55 µM) |  |  |  |  |  | 
C[C@@H]1CC[C@@]2(OC1)OC1CC3C4CC=C5C[C@@H](O[C@@H]6O[C@H](CO)[C@@H](OC7O[C@@H](COC(=O)c8ccncc8)[C@H](O)[C@H]7O)[C@H](O)[C@H]6OC6O[C@@H](C)[C@H](O)[C@@H](O)[C@H]6O)CC[C@]5(C)C4CC[C@]3(C)C1[C@@H]2C (stereo partly drawn) [BS-PP-04] | 0.91 (≈ 0.948 µM) | 3.85 (≈ 4.01 µM) | 0.38 (≈ 0.396 µM) |  | 2.33 (≈ 2.43 µM) | 1 (≈ 1.04 µM) | 14.5 (≈ 15.1 µM) | 0.48 (≈ 0.5 µM) | 3.23 (≈ 3.36 µM) | 
C[C@@H]1CC[C@@]2(OC1)OC1CC3C4CC=C5C[C@@H](O[C@@H]6O[C@H](CO)[C@@H](OC7O[C@@H](COC(=O)c8ccc(C(F)(F)F)cc8)[C@H](O)[C@H]7O)[C@H](O)[C@H]6OC6O[C@@H](C)[C@H](O)[C@@H](O)[C@H]6O)CC[C@]5(C)C4CC[C@]3(C)C1[C@@H]2C (stereo partly drawn) [BS-PP-05] |  |  |  | 6.82 (≈ 6.64 µM) |  | 1.8 (≈ 1.75 µM) | 12 (≈ 11.7 µM) |  |  | 
C[C@@H]1CC[C@@]2(OC1)OC1CC3C4CC=C5C[C@@H](O[C@@H]6O[C@H](CO)[C@@H](OC7O[C@@H](COC(=O)c8ccc(F)cc8)[C@H](O)[C@H]7O)[C@H](O)[C@H]6OC6O[C@@H](C)[C@H](O)[C@@H](O)[C@H]6O)CC[C@]5(C)C4CC[C@]3(C)C1[C@@H]2C (stereo partly drawn) [BS-PP-06] | 0.79 (≈ 0.808 µM) | 4.09 (≈ 4.19 µM) | 0.73 (≈ 0.747 µM) | 5.13 (≈ 5.25 µM) | 2.66 (≈ 2.72 µM) |  |  |  |  | 
C[C@@H]1CC[C@@]2(OC1)OC1CC3C4CC=C5C[C@@H](O[C@@H]6O[C@H](CO)[C@@H](OC7O[C@@H](COC(=O)c8ccc(F)cc8F)[C@H](O)[C@H]7O)[C@H](O)[C@H]6OC6O[C@@H](C)[C@H](O)[C@@H](O)[C@H]6O)CC[C@]5(C)C4CC[C@]3(C)C1[C@@H]2C (stereo partly drawn) [BS-PP-08] | 0.85 (≈ 0.854 µM) | 1.9 (≈ 1.91 µM) | 0.49 (≈ 0.492 µM) | 4.93 (≈ 4.95 µM) | 2.5 (≈ 2.51 µM) | 1.19 (≈ 1.2 µM) | 14.1 (≈ 14.1 µM) | 0.61 (≈ 0.613 µM) | 3.89 (≈ 3.91 µM) | 
C[C@@H]1CC[C@@]2(OC1)OC1CC3C4CC=C5C[C@@H](O[C@@H]6O[C@H](CO)[C@@H](OC7O[C@@H](COC(=O)c8cccs8)[C@H](O)[C@H]7O)[C@H](O)[C@H]6OC6O[C@@H](C)[C@H](O)[C@@H](O)[C@H]6O)CC[C@]5(C)C4CC[C@]3(C)C1[C@@H]2C (stereo partly drawn) [BS-PP-09] | 1.11 (≈ 1.15 µM) | 3.92 (≈ 4.06 µM) |  | 5.25 (≈ 5.44 µM) |  | 1.6 (≈ 1.66 µM) | 13 (≈ 13.5 µM) | 0.55 (≈ 0.57 µM) | 2 (≈ 2.07 µM) | 
C[C@@H]1CC[C@@]2(OC1)OC1CC3C4CC=C5C[C@@H](O[C@@H]6O[C@H](CO)[C@@H](OC7O[C@@H](COC(=O)c8ccco8)[C@H](O)[C@H]7O)[C@H](O)[C@H]6OC6O[C@@H](C)[C@H](O)[C@@H](O)[C@H]6O)CC[C@]5(C)C4CC[C@]3(C)C1[C@@H]2C (stereo partly drawn) [BS-PP-10] | 0.83 (≈ 0.875 µM) | 2.82 (≈ 2.97 µM) | 0.45 (≈ 0.474 µM) | 5.46 (≈ 5.75 µM) | 2.23 (≈ 2.35 µM) | 0.86 (≈ 0.906 µM) | 10.2 (≈ 10.8 µM) | 0.45 (≈ 0.474 µM) | 2.01 (≈ 2.12 µM) | IC50 [5]: 0.78 µg/mL (≈ 0.822 µM); IC50 ([6]; Homo sapiens, SK-OV-3): 0.65 µg/mL (≈ 0.685 µM); IC90 ([6]; Homo sapiens, SK-OV-3): 0.97 µg/mL (≈ 1.02 µM); IC50 (MG-63 (osteosarcoma)): 0.33 µg/mL (≈ 0.348 µM); IC90 (MG-63 (osteosarcoma)): 0.85 µg/mL (≈ 0.896 µM)
CC(=O)OC[C@@H]1OC(O[C@H]2[C@H](O)[C@@H](OC3O[C@@H](C)[C@H](O)[C@@H](O)[C@H]3O)[C@H](O[C@H]3CC[C@@]4(C)C(=CCC5C6CC7O[C@]8(CC[C@@H](C)CO8)[C@@H](C)C7[C@@]6(C)CCC54)C3)O[C@@H]2CO)[C@H](O)[C@H]1O (stereo partly drawn) [BS-PP-11] | 0.94 (≈ 1.05 µM) | 2.48 (≈ 2.76 µM) | 0.42 (≈ 0.468 µM) |  | 2.32 (≈ 2.59 µM) | 0.83 (≈ 0.925 µM) | 10.2 (≈ 11.4 µM) | 0.62 (≈ 0.691 µM) | 2.57 (≈ 2.86 µM) | IC50 (MG-63 (osteosarcoma)): 0.33 µg/mL (≈ 0.368 µM); IC90 (MG-63 (osteosarcoma)): 0.76 µg/mL (≈ 0.847 µM)
C[C@@H]1CC[C@@]2(OC1)OC1CC3C4CC=C5C[C@@H](O[C@@H]6O[C@H](CO)[C@@H](OC7O[C@@H](COC(=O)C8CC8)[C@H](O)[C@H]7O)[C@H](O)[C@H]6OC6O[C@@H](C)[C@H](O)[C@@H](O)[C@H]6O)CC[C@]5(C)C4CC[C@]3(C)C1[C@@H]2C (stereo partly drawn) [BS-PP-12] | 1.22 (≈ 1.32 µM) | 3.96 (≈ 4.29 µM) | 0.42 (≈ 0.455 µM) | 6.08 (≈ 6.59 µM) | 2.14 (≈ 2.32 µM) | 0.86 (≈ 0.932 µM) | 7.38 (≈ 7.99 µM) | 0.5 (≈ 0.542 µM) | 3.19 (≈ 3.46 µM) | IC50 [5]: 0.86 µg/mL (≈ 0.932 µM)
C[C@@H]1CC[C@@]2(OC1)OC1CC3C4CC=C5C[C@@H](O[C@@H]6O[C@H](CO)[C@@H](OC7O[C@@H](COC(=O)c8ccc(F)cc8Cl)[C@H](O)[C@H]7O)[C@H](O)[C@H]6OC6O[C@@H](C)[C@H](O)[C@@H](O)[C@H]6O)CC[C@]5(C)C4CC[C@]3(C)C1[C@@H]2C (stereo partly drawn) [BS-PP-15] | 1.19 (≈ 1.18 µM) | 3.4 (≈ 3.36 µM) | 0.76 (≈ 0.751 µM) | 5.13 (≈ 5.07 µM) | 2 (≈ 1.98 µM) | 1.8 (≈ 1.78 µM) | 9.9 (≈ 9.79 µM) | 0.68 (≈ 0.672 µM) | 3.51 (≈ 3.47 µM) | 
C[C@@H]1CC[C@@]2(OC1)O[C@H]1C[C@H]3[C@@H]4CC=C5C[C@@H](O[C@@H]6O[C@H](CO)[C@@H](O[C@@H]7O[C@@H](CO)[C@H](O)[C@H]7O)[C@H](O)[C@H]6O[C@@H]6O[C@@H](C)[C@H](O)[C@@H](O)[C@H]6O)CC[C@]5(C)[C@H]4CC[C@]3(C)[C@H]1[C@@H]2C [PP, 4-O-arabinofuranosyl-2-O-rhamnopyranosyl-β-D-glucopyranosyldioscin, reference compound] |  |  |  |  |  |  |  |  |  | effects on the proliferation of CNE-2 cells [7]: time- and dose-dependent inhibitory effects; radiosensitizing effects on CNE-2 cell line [8]: concentration-dependent radiosensitizing effects; effect on proliferation of SMMC-7721 cells [9]: inhibit the proliferation of hepatocellular carcinoma SMMC-7721 cells in a time- and concentration-dependent manner; Kasumi-1 IC50 [5]: 0.92 µg/mL; NB4 IC50 [1]: 1.84 µg/mL; NB4 IC90 [1]: 6.75 µg/mL; K562/adr IC50 [2]: 0.87 µg/mL; K562/adr IC90 [2]: 2.98 µg/mL; A549 IC50 (A549 (human lung cancer)): 1.86 µg/mL; A549 IC90 (A549 (human lung cancer)): 14.63 µg/mL; Hela IC50 [4]: 0.77 µg/mL; Hela IC90 [4]: 4.86 µg/mL; SK-OV-3 IC50 [6]: 0.70 µg/mL; SK-OV-3 IC90 [6]: 1.70 µg/mL; RKO IC90 [3]: 8.48 µg/mL; MG-63 IC50 (MG-63 (osteosarcoma)): 0.37 µg/mL; MG-63 IC90 (MG-63 (osteosarcoma)): 0.97 µg/mL
